Test results: publication PMC12440824, “Chimeric deubiquitinase engineering reveals structural basis for specific inhibition of the mitophagy regulator USP30” (Nature Structural & Molecular Biology, 2025)
pIC50: −log10 of the molar value. “And” between values parts separate entries of the source, which are not always exact repeats. Equal values may be shown once.

Assays:
[1] = target: USP30^ch3 F453Y (Homo sapiens, UniProt Q70CQ3, F453Y, form not given); test: Ub–RhoG cleavage enzyme inhibition assay, chimera 3 F453Y; format: biochemical; set-up: USP30ch3 F453Y activity / USP30ch3 F453Y activity (ED Fig. 7e series): scale not given here; conditions: for reduction of inhibition potency by F453Y substitution (specificity window vs WT): USP30^ch3 F453Y vs WT; for USP30ch3 F453Y activity (ED Fig. 7e series) / USP30ch3 F453Y activity: mean n=3; for USP30ch3 F453Y activity: Fig. 4e,g
Experimental: (§1) Enzyme kinetics were performed in black, low-volume, non-binding-surface 384-well plates. […] Next, 10 µl of 2× enzyme solution was added in triplicate to the plate. The reaction was started by adding 10 µl of 2× substrate solution. […] Inhibitor solution (4×) was added to 4× enzyme solution to create a 2× enzyme–inhibitor mixture. Next, 10 µl of this 2× enzyme–inhibitor mixture was then added to the plate in triplicate, and the plate was incubated at room temperature for 90 min. The reaction was started by adding 10 µl of 2× Ub–RhoG substrate. […] Data were analyzed with GraphPad Prism.

[2] = test system: T1, Flag-tagged, full-length USP30 (wild type) in HEK293 cells; test: Cellular ubiquitin probe competition, overexpressed Flag-tagged full-length USP30 wild type; format: cell-based, human; conditions: 2 µM compound, 2 h; HA-Ub-PA probe in lysate
T1 construct: C-terminally Flag-tagged human USP30 (1–517) was used for transient transfection; expressed in transfected cells; host or cells: HEK293, transient transfection of a pOPINE vector
Experimental: (§2) HEK293 cells (8 × 10^5 cells per well) were seeded in six-well plates and cultivated for 24 h. PEI transfecting reagent (Polysciences) was pre-incubated for 10 min with the vectors in 200 μl Opti-MEM medium (2 µg DNA per well). Cells were transfected and incubated for 48 h. Following the treatment with either compounds or DMSO in fresh medium for an additional 2 h, cells were processed as described below. Cells were seeded at 8 × 10^5 cells per well and grown for 48 h. […] The medium was aspirated, and cells were washed once with ice-cold PBS. Cells were collected by scraping in lysis buffer (150 mM NaCl, 250 mM sucrose, 50 mM Tris, pH 8.0, 5 mM TCEP) supplemented with EDTA-free complete protease inhibitor cocktail and benzonase. Suspended cells were homogenized by 12 bursts of a microtip probe sonicator (Branson Sonifier 450) at 10% amplitude with pulses of 1 s on ice. Remaining cell debris was separated by centrifugation (20,817g, 5 min, 4 °C). […] After incubation for 10 min at room temperature, reactions were quenched by the addition of 4× reducing LDS sample buffer. Samples were resolved by SDS–PAGE and further analyzed via western blot. Using a Trans-Blot Turbo system (Bio-Rad, 1.0 A, 25 V, 30 min), proteins were blotted onto a nitrocellulose membrane. […]

[3] = test system: overexpressed USP30 F157A, I154A, A162S in HEK293 cells; test: Cellular ubiquitin probe competition, overexpressed USP30 F157A, I154A, A162S; format: cell-based, human; conditions: 2 µM compound, 2 h
Experimental: as §2

[4] = test system: USP30^ch4; test: Thermal shift assay, USP30 ch4; format: binding, human; conditions: 20 μM inhibitor; for ΔTm, USP30^ch4: replicates or average
Experimental: (§3) The thermal stability of USP30 constructs and effects of either inhibitor or Ub-PA binding were determined by thermal shift assays. Inhibitor, Ub-PA and SYPRO orange dye (Sigma, 5,000× stock in DMSO) solutions were prepared in 1× PBS, 4 mM DTT. Inhibitor/Ub-PA was prediluted to 100 µM, and SYPRO orange dye was prediluted to 50× (from the commercial stock). Mixtures of protein, inhibitor/Ub-PA and SYPRO were prepared with inhibitor/Ub-PA at a final concentration of 20 μM, SYPRO at a final concentration of 4× and protein at a final concentration of 2 μM for c1, 4 μM for ch1, ch4 and c2 and 3 μM for ch2 and ch3. Samples were added in triplicate to a white 96-well PCR plate (Bio-Rad). Fluorescence intensity was monitored (excitation, 450–490 nm; emission, 560–580 nm) at a gradient of 20–90 °C (increment of 0.3 °C, hold for 5 s before read) on a real-time PCR system (Bio-Rad).

[5] = target: T2, USP30^c1 (Homo sapiens, UniProt Q70CQ3, DEL179-208/DEL211-214/DEL358-428/F348D/I353E/M350S/N216S/S215G); test: Ub–RhoG cleavage enzyme inhibition assay, USP30 construct 1; format: biochemical; conditions: for pIC50: Ub–RhoG cleavage, 1.5 h pre-incubation, mean ± s.e.m. from curve fitting; for USP30c1 activity: mean n=3
T2 sequence (Q70CQ3 with tags, fused parts or gaps DEL179-208/DEL211-214/S215G/N216S/F348D/M350S/I353E/DEL358-428): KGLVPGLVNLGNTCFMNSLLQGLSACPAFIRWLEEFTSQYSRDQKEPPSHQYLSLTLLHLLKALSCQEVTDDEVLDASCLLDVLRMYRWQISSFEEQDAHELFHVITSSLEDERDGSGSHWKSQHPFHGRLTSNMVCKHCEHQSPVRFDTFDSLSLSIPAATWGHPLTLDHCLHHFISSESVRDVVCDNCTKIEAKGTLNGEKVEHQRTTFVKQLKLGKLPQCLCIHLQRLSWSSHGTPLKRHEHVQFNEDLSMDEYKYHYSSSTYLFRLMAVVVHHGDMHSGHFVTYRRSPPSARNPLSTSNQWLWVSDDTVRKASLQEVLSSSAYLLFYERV
Experimental: as §1

[6] = target: USP30^ch3 I154A (Homo sapiens, UniProt Q70CQ3, I154A, form not given); test: Thermal shift assay, USP30 ch3 I154A; format: binding; conditions: 20 μM inhibitor
Experimental: as §3

[7] = target: USP30^ch2 (Homo sapiens, UniProt Q70CQ3); test: Ub–RhoG cleavage enzyme inhibition assay, chimera 2; format: biochemical; set-up: scale not given here; conditions: mean n=3
Experimental: as §1

[8] = pH 8, read-out: USP30c1 activity

Chain of USP30^ch3 F453Y (Q70CQ3 64-502 F453Y, form open): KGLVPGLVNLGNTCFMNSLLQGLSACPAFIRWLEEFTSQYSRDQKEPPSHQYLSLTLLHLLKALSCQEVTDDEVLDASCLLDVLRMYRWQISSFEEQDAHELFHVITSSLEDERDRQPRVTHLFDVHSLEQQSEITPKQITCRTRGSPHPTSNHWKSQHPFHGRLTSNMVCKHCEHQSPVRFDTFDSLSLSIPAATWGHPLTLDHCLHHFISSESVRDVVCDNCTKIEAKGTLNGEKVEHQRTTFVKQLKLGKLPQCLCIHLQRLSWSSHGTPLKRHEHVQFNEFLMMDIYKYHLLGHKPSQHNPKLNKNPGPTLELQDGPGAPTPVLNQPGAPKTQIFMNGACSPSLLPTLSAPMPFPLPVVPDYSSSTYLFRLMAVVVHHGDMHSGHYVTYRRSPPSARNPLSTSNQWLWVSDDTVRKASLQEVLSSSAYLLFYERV
Chain of USP30^ch3 F453Y (P54578 248-318 partner, form open): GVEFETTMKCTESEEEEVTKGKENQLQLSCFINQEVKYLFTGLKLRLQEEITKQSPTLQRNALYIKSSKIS
Chain of USP30^ch3 F453Y (Q9P2H5 821-846 partner, form open): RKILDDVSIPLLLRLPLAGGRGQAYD
Chain of USP30^ch2 (Q70CQ3 64-502): as the sequence (Q70CQ3 64-502 F453Y, form open) above, with Y390F counted along it
Chain of USP30^ch2 (P54578 248-318 partner): as the sequence (P54578 248-318 partner, form open) above
Chain of USP30^ch3 I154A (Q70CQ3 64-502 I154A, form open): as the sequence (Q70CQ3 64-502 F453Y, form open) above, with I91A, Y390F counted along it
Chain of USP30^ch3 I154A (P54578 248-318 partner, form open): as the sequence (P54578 248-318 partner, form open) above

CC(C)(CO)NS(=O)(=O)c1ccc(NC(=O)[C@H](Cc2ccccc2)NC(=O)c2ccc(F)cc2)cc1 [NK036]
reduction of inhibition potency by F453Y substitution (specificity window vs WT) [1]: more than two orders of magnitude | probe labeling of wild-type Flag-USP30 [2]: abolished probe labeling | inhibition of overexpressed USP30 F157A, I154A, A162S in cells [3]: refractory to inhibition | Tm in presence of compound, USP30^ch4 [4]: 59.2 °C | ΔTm, USP30^ch4 ([4]; 20 µM): 7.7 °C and 7.6 °C and 7.9 °C | pIC50 [5]: 8.13 | activity at 1.562 pM [5, 8]: 100% | activity at 6.25 pM [5, 8]: 101% | activity at 25 pM [5, 8]: 98.2% | activity at 0.0001 µM [5, 8]: 95.3% | activity at 0.00039 µM [5, 8]: 89% | activity at 0.00156 µM [5, 8]: 79.6% | activity at 0.00625 µM [5, 8]: 53.6% | activity at 0.025 µM [5, 8]: 27% | activity at 0.1 µM [5, 8]: 10.3% | activity at 0.4 µM [5, 8]: 3.49% | activity at 1.6 µM [5, 8]: 1.25% | Tm in presence of compound, USP30^ch3 I154A [6]: 59.0 °C

CC(C)(C)NS(=O)(=O)c1ccc(NC(=O)[C@H](Cc2ccccc2)NC(=O)c2ccc(F)cc2)cc1 [compound 39]
USP30ch2 activity ([7]; inhibitor 0.0015625 nM): 0.9681 | USP30ch2 activity ([7]; inhibitor 0.00625 nM): 1.022 | USP30ch2 activity ([7]; inhibitor 0.025 nM): 0.8647 | USP30ch2 activity ([7]; inhibitor 0.1 nM): 0.7206 | USP30ch2 activity ([7]; inhibitor 0.39 nM): 0.5237 | USP30ch2 activity ([7]; inhibitor 1.56 nM): 0.3579 | USP30ch2 activity ([7]; inhibitor 6.25 nM): 0.1977 | USP30ch2 activity ([7]; inhibitor 25 nM): 0.0871 | USP30ch2 activity ([7]; inhibitor 100 nM): 0.04077 | USP30ch2 activity ([7]; inhibitor 400 nM): 0.01798 | USP30ch2 activity ([7]; inhibitor 1600 nM): 0.005204 | reduction of inhibition potency by F453Y substitution (specificity window vs WT) [1]: three orders of magnitude | USP30ch3 F453Y activity (ED Fig. 7e series) ([1]; inhibitor 0.001563 nM): 1.055 | USP30ch3 F453Y activity ([1]; inhibitor 0.001563 nM): 0.9971 | USP30ch3 F453Y activity (ED Fig. 7e series) ([1]; inhibitor 0.00625 nM): 1.076 | USP30ch3 F453Y activity ([1]; inhibitor 0.00625 nM): 1.054 | USP30ch3 F453Y activity (ED Fig. 7e series) ([1]; inhibitor 0.025 nM): 1.018 | USP30ch3 F453Y activity ([1]; inhibitor 0.025 nM): 1.004 | USP30ch3 F453Y activity (ED Fig. 7e series) ([1]; inhibitor 0.1 nM): 0.9989 | USP30ch3 F453Y activity ([1]; inhibitor 0.1 nM): 0.9561 | USP30ch3 F453Y activity (ED Fig. 7e series) ([1]; inhibitor 0.39 nM): 0.8995 | USP30ch3 F453Y activity ([1]; inhibitor 0.39 nM): 0.9204 | USP30ch3 F453Y activity (ED Fig. 7e series) ([1]; inhibitor 1.56 nM): 0.9776 | USP30ch3 F453Y activity ([1]; inhibitor 1.56 nM): 0.9185 | USP30ch3 F453Y activity (ED Fig. 7e series) ([1]; inhibitor 6.25 nM): 0.9466 | USP30ch3 F453Y activity ([1]; inhibitor 6.25 nM): 0.9079 | USP30ch3 F453Y activity (ED Fig. 7e series) ([1]; inhibitor 25 nM): 0.9111 | USP30ch3 F453Y activity ([1]; inhibitor 25 nM): 0.8377 | USP30ch3 F453Y activity (ED Fig. 7e series) ([1]; inhibitor 100 nM): 0.8886 | USP30ch3 F453Y activity ([1]; inhibitor 100 nM): 0.7744 | USP30ch3 F453Y activity (ED Fig. 7e series) ([1]; inhibitor 400 nM): 0.7448 | USP30ch3 F453Y activity ([1]; inhibitor 400 nM): 0.5461 | USP30ch3 F453Y activity (ED Fig. 7e series) ([1]; inhibitor 1600 nM): 0.7279 | USP30ch3 F453Y activity ([1]; inhibitor 1600 nM): 0.3171 | probe labeling of wild-type Flag-USP30 [2]: abolished probe labeling | Tm in presence of compound, USP30^ch4 [4]: 60.3 °C | ΔTm, USP30^ch4 ([4]; 20 µM): 8.8 °C | ΔTm, USP30^ch4 ([4]; listed as NK017, 20 µM): 9.0 °C and 8.7 °C (2×) | pIC50 [5]: 9.10 and 9.08 | USP30c1 activity ([5]; inhibitor 0.0015625 nM): 0.9588 | USP30c1 activity ([5]; inhibitor 0.00625 nM): 0.9404 | USP30c1 activity ([5]; inhibitor 0.025 nM): 0.8662 | USP30c1 activity ([5]; inhibitor 0.1 nM): 0.7469 | USP30c1 activity ([5]; inhibitor 0.39 nM): 0.5918 | USP30c1 activity ([5]; inhibitor 1.56 nM): 0.4353 | USP30c1 activity ([5]; inhibitor 6.25 nM): 0.2635 | USP30c1 activity ([5]; inhibitor 25 nM): 0.1267 | USP30c1 activity ([5]; inhibitor 100 nM): 0.06264 | USP30c1 activity ([5]; inhibitor 400 nM): 0.02701 | USP30c1 activity ([5]; inhibitor 1600 nM): 0.01055 | Tm in presence of compound, USP30^ch3 I154A [6]: 59.0 °C
